Measured values as given in patent publication US12653896B2, “Targeted dendrimer conjugates” (Starpharma Pty Ltd, priority 2019, dated 2026).

Tests used:
Assay type in all cases: cell-based, human
MDA-MB-231/HER2 cells = test: In vitro association study (flow cytometry, Cy5), MDA-MB-231/HER2; conditions: MDA-MB-231/HER2, 3.33 nM
Experimental: (§1) MDA-MB-231, MDA-MB-231/HER2 (HER2 knock in) (as described above), or SKOV-3 cells were seeded in a 24-well plate (1×10^5 cells per well) in 500 μL of appropriate growth media with the addition of 10% (v/v) fetal bovine serum (FBS) and incubated with compound 36 or 41 at 3.33 nM, […] atmosphere. After incubation, non-binding/non-associating particles were removed from adherent cells by gently washing with DPBS three times (300 μL/well). Cells were removed from plates by treatment with TrypLE™ Express Enzyme (1×), no phenol red (150 μL/well) for 5-10 min at room temperature. The plates were then placed on ice. Cellular binding and association of sample were then determined through flow cytometry by the acquisition of the signal from Cy5.

MDA-MB-231 cells [1] = test: Confocal cellular uptake, MDA-MB-231; conditions: MDA-MB-231, 3.33 nM, 24 h
Experimental: MDA-MB-231, MDA-MB-231/HER2 and SKOV-3 cells were plated at 1.0×10^4 cells per well into μ-slide 8 well chambered coverslip (ibidi) and allowed to adhere overnight at 37° C., 5% CO2. compounds 36 and 41 (3.33 nM) were then added and allowed to incubate for 1, 3, 6 and 24 hrs. The cells were washed and then fixed with 1% paraformaldehyde for 20 min at room temperature. The cell membrane was stained with Alexa Fluor 488-wheat germ agglutinin (AF488-WGA, 5 μg mL^−1) in DPBS at room temperature for 10 min. The cell nuclei were counterstained with 4′,6-diamidino-2-phenylindole (DAPI, 2 μg mL^−1) in DPBS at room temperature for 10 min. Fluorescence images and optical sections were collected using a confocal microscope (Leica SP8). Images were processed with Fiji (Image J 1.52n).

SKOV-3 cells = test: In vitro association study (flow cytometry, Cy5), SKOV-3; conditions: SKOV-3, 3.33 nM
Experimental: MDA-MB-231, MDA-MB-231/HER2 (HER2 knock in) (as described above), or SKOV-3 cells were seeded in a 24-well plate (1×10^5 cells per well) in 500 μL of appropriate growth media with the addition of 10% (v/v) fetal bovine serum (FBS) and incubated with compound 36 or 41 at 3.33 nM, with incubation time varied from 1 to 24 h at 37° C. in a 5% CO2 humidified atmosphere. After incubation, non-binding/non-associating particles were removed from adherent cells by gently washing with DPBS three times (300 μL/well). Cells were removed from plates by treatment with TrypLE™ Express Enzyme (1×), no phenol red (150 μL/well) for 5-10 min at room temperature. The plates were then placed on ice. Cellular binding and association of sample were then determined through flow cytometry by the acquisition of the signal from Cy5.

MDA-MB-231 cells [2] = test: In vitro association study (flow cytometry, Cy5), MDA-MB-231; conditions: MDA-MB-231, 3.33 nM, in words
Experimental: as §1

## (MeTzPh)PEG4CO-NHPEG24CO—[N(PN)2][Lys]8[((α-NH-Cy5)1-4(α-NH-Glu-Val-Cit-PAB-MMAE)4-7)(ε-NH-COPEG1100)8] [Compound 36]
MDA-MB-231/HER2 cells; 24 h, 37° C.
  Mean fluorescence intensity: 16.05±1.89
MDA-MB-231/HER2 cells; in words
  binding over 24 h: minimal binding
MDA-MB-231 cells [1]
  association with cells (confocal): little
SKOV-3 cells; 24 h, 37° C.
  Mean fluorescence intensity: 16.4±6.86
SKOV-3 cells; in words
  binding over 24 h: minimal binding
MDA-MB-231 cells [2]
  binding over 24 h: minimal binding
